Each structure is given as a SMILES string.

In patent US6500803B1, “Factor VIIa inhibitors” (Aventis Pharma Deutschland GmbH, priority 1999, dated 2002) one finds Ki data, which are given here for 27 molecules.

The test has as its target T1, factor VIIa/tissue factor (Homo sapiens, UniProt P08709).
T1 construct: human factor VIIa and TF (5 nM and 10 nM, respective final concentration)
The test can be described thus: Factor VIIa (FVIIa) chromogenic assay. The note with it: human factor VIIa 5 nM and TF 10 nM, chromogenic substrate S-2288 500 μM, 15 min preincubation, 25° C., pH 8.15. The format is biochemical. As for the experimental part:
The ability of compounds of formula I to inhibit factor VIIa or other enzymes like factor Xa, thrombin, plasmin, or trypsin can be assessed by determining the concentration of the compound of formula I that inhibits enzyme activity by 50%, i.e., the IC50 value, which is related to the inhibition constant Ki. Purified enzymes are used in chromogenic assays. The concentration of inhibitor that causes a 50% decrease in the rate of substrate hydrolysis is determined by linear regression after plotting the relative rates of hydrolysis (compared to the uninhibited control) versus the log of the concentration of the compound of formula I. For calculating the inhibition constant Ki, the IC50 value is corrected for competition with substrate using the formula: Ki=IC50/{1+(substrate concentration/Km)} wherein Km is the Michaelis-Menten constant (Chen and Prusoff, Biochem. Pharmacol. 22 (1973), 3099-3108; I. H. Segal, Enzyme Kinetics, John Wiley & Sons, New York (1975) 100-125; which are incorporated herein by reference).
a) Factor VIIa (FVIIa) Assay
The inhibitory activity (expressed as inhibition constant Ki (FVIIa)) of compounds of formula I towards factor VIIa/tissue factor activity was determined using a chromogenic assay essentially as described previously (J. A. Ostrem et al., Biochemistry 37 (1998) 1053-1059, which is incorporated herein by reference). Kinetic assays were conducted at 25° C. in half-area microtiter plates (Costar Corp., Cambridge, Mass.) using a kinetic plate reader (Molecular Devices Spectramax 250). A typical assay consisted of 25 μl of human factor VIIa and TF (5 nM and 10 nM, respective final concentration) combined with 40 μl of inhibitor dilutions in 10% DMSOFTBS-PEG buffer (50 mM Tris, 15 mM NaCl, 5 mM CaCl2, 0.05% PEG 8000, pH 8.15). Following a 15 min preincubation period, the assay was initiated by the addition of 35 μl of the chromogenic substrate S-2288 (D-Ile-Pro-Arg-p-nitroanilide, Pharmacia Hepar Inc., 500 μM final concentration).

T1 sequence (P08709 213-466 limits assumed): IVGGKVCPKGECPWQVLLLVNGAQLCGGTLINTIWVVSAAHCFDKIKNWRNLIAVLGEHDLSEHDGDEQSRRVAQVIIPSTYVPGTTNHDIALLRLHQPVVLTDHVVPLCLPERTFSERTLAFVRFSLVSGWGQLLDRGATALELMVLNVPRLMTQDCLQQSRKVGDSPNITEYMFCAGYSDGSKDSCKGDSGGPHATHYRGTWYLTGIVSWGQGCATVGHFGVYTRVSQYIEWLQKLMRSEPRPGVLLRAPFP
T1 sequence (P08709 61-212 limits assumed): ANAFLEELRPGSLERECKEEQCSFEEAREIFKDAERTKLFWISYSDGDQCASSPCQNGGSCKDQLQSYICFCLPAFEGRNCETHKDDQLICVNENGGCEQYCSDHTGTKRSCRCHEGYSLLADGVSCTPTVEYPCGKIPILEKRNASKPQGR
T1 sequence (P13726 33-295 partner): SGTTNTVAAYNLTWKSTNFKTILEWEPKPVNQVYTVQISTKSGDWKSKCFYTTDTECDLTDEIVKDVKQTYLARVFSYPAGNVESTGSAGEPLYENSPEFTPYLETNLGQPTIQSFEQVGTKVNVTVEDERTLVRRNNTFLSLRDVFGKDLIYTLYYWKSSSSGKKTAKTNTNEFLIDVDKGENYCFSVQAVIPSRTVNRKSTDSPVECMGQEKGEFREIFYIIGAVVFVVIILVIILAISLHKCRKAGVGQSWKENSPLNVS

One may read the Ki as a dissociation constant, usually derived from enzyme kinetics or from competition with a known ligand. Low readings indicate tighter binding, high ones weaker binding. Molecule `C=CCOC(=O)N[C@@H](Cc1ccc(C(=N)N)cc1)C(=O)N[C@@H](CCC(=O)O)C(=O)NCc1cccc(CNS(=O)(=O)c2ccc(F)cc2)c1` [Example 25] came in with a Ki of 1880 nM. This lies in the single-digit micromolar range.
The molecule `C=CCOC(=O)N[C@@H](Cc1ccc(C(=N)N)cc1)C(=O)N[C@@H](CCC(=O)O)C(=O)NC1c2ccccc2-c2ccc(N)cc21` (mixture of isomers) [Example 6, Alloc-pAph-Glu-((RS)-2-amino-9H-fluorene-9-yl)amide] displayed a Ki of 400 nM.
Consider `C=CCOC(=O)N[C@@H](Cc1ccc(C(=N)N)cc1)C(=O)N[C@@H](CCCC(=O)O)C(=O)NCc1cccc(N)c1` [Example 15, Alloc-pAph-2-Aad-(3-aminobenzyl)amide], for which the Ki amounted to 75700 nM.
The value for `C=CCOC(=O)N[C@@H](Cc1ccc(C(=N)N)cc1)C(=O)N[C@@H](CCC(=O)O)C(=O)NCc1cccc(CNS(C)(=O)=O)c1` [Example 20] was 2030 nM; that for `C=CCOC(=O)N[C@@H](Cc1ccc(C(=N)N)cc1)C(=O)N[C@@H](CCC(=O)O)C(=O)NCc1cccc(CN)c1` [Example 37] was 3700 nM; that for `C=CCOC(=O)N[C@@H](Cc1ccc(C(=N)N)cc1)C(=O)N[C@@H](CCC(=O)O)C(=O)NCc1cccc(CNS(=O)(=O)c2ccc(OC)cc2)c1` [Example 19] was 680 nM.
The value for `C=CCOC(=O)N[C@@H](Cc1ccc(C(=N)N)cc1)C(=O)N[C@@H](CCC(=O)O)C(=O)NCCCNS(=O)(=O)c1ccc(OC)cc1` [Example 28] was 280 nM; that for `C=CCOC(=O)N[C@@H](Cc1ccc(C(=N)N)cc1)C(=O)N[C@@H](CC(=O)O)C(=O)NCc1cccc(N)c1` [Example 14, Alloc-pAph-Asp-(3-aminobenzyl)amide] was 3400 nM.
With `C=CCOC(=O)NC(Cc1ccc(C(=N)N)cc1)C(=O)NC(CCC(=O)O)C(=O)NCc1ccc(O)cc1O` (stereo not drawn) [Example 4, Alloc-pAph-Glu-(2,4-dihydroxybenzyl)amide], the Ki is 700 nM.
On to `C=CCOC(=O)N[C@@H](Cc1ccc(C(=N)N)cc1)C(=O)N[C@@H](CCC(=O)O)C(=O)NCc1cccc(CNS(=O)(=O)c2ccc(Cl)s2)c1` [Example 24], for which the affinity corresponds to a Ki of 890 nM.
With `C=CCOC(=O)N[C@@H](Cc1ccc(C(=N)N)cc1)C(=O)N[C@@H](CCC(=O)O)C(=O)NCCc1ccc(N)cc1` [Example 3, Alloc-pAph-Glu-(2-(4-aminophenyl)ethyl)amide], the Ki turned out to be 800 nM.
Molecule `C=CCOC(=O)N[C@@H](Cc1ccc(C(=N)N)cc1)C(=O)N[C@@H](CCC(=O)O)C(=O)NCc1cccc(CNS(=O)(=O)N(C)C)c1` [Example 21] showed a Ki of 620 nM.
The figure for `C=CCOC(=O)N[C@@H](Cc1ccc(C(=N)N)cc1)C(=O)N[C@@H](CCC(=O)O)C(=O)NCc1ccccc1N` [Example 5, Alloc-pAph-Glu-(2-aminobenzyl)amide] is 600 nM.
Molecule `C=CCOC(=O)N[C@@H](Cc1ccc(C(=N)N)cc1)C(=O)N[C@@H](CCC(=O)O)C(=O)NC1CCN(S(=O)(=O)c2cccc(Br)c2)CC1` [Example 30] had a Ki of 430 nM. The Ki values of the last two molecules are within 1.5-fold of each other.
Consider `C=CCOC(=O)N[C@@H](Cc1ccc(C(=N)N)cc1)C(=O)N[C@@H](CCC(=O)O)C(=O)NCc1cccc(CNS(=O)(=O)c2cccc3ccccc23)c1` [Example 18], for which the Ki worked out at 1800 nM.
Molecule `C=CCOC(=O)N[C@@H](Cc1ccc(C(=N)N)cc1)C(=O)N[C@@H](CCC(=O)O)C(=O)NC1CCN(S(=O)(=O)c2cccc(Cl)c2)CC1` [Example 32] yielded a Ki of 560 nM.
The value for `C=CCOC(=O)N[C@@H](Cc1ccc(C(=N)N)cc1)C(=O)N[C@@H](CCC(=O)O)C(=O)NCc1ccc(N)cc1` [Example 1, Alloc-pAph-Glu-(4-aminobenzyl)amide] was 400 nM; that for `C=CCOC(=O)N[C@@H](Cc1ccc(C(=N)N)cc1)C(=O)N[C@@H](CCC(=O)O)C(=O)Nc1nc(CC(N)=O)cs1` [Example 12, Alloc-pAph-Glu-(4-carbamoylmethylthiazol-2-yl)amide] was 44100 nM.
Regarding `C=CCOC(=O)N[C@@H](Cc1ccc(C(=N)N)cc1)C(=O)N[C@@H](CCC(=O)O)C(=O)NC1CCN(S(=O)(=O)c2cccc(C(F)(F)F)c2)CC1` [Example 31], the Ki was 640 nM. Compared with the last molecule, the Ki is about 69-fold lower.
The value for `C=CCOC(=O)N[C@@H](Cc1ccc(C(=N)N)cc1)C(=O)N[C@@H](CCC(=O)O)C(=O)NCCCNC(=O)OCC` [Example 7, Alloc-pAph-Glu-(3-ethoxycarbonylaminopropyl)amide] was 800 nM; that for `C=CCOC(=O)N[C@@H](Cc1ccc(C(=N)N)cc1)C(=O)N[C@@H](CCC(=O)O)C(=O)NCCCNS(=O)(=O)c1cccc(Br)c1` [Example 26] was 300 nM; that for `C=CCOC(=O)N[C@@H](Cc1ccc(C(=N)N)cc1)C(=O)N[C@@H](CCC(=O)O)C(=O)NCCCNS(=O)(=O)c1cc(Cl)cc(Cl)c1` [Example 10, Alloc-pAph-Glu-(3-(3,5-dichlorobenzenesulfonylamino)propyl)amide] was 680 nM.
The value for `C=CCOC(=O)N[C@@H](Cc1ccc(C(=N)N)cc1)C(=O)N[C@@H](CCC(=O)O)C(=O)NCc1cccc(N)c1` [Example 2, Alloc-pAph-Glu-(3-aminobenzyl)amide] was 200 nM; that for `C=CCOC(=O)N[C@@H](Cc1ccc(C(=N)N)cc1)C(=O)N[C@@H](CCC(=O)O)C(=O)NCc1cccc(CNS(=O)(=O)c2ccc3ccccc3c2)c1` [Example 11, Alloc-pAph-Glu-(3-((naphthalene-2-sulfonylamino)methyl)benzyl)amide] was 800 nM.
The figure for `C=CCOC(=O)N[C@@H](Cc1ccc(C(=N)N)cc1)C(=O)N[C@@H](CCC(=O)O)C(=O)NCc1cccc(CNS(=O)(=O)C=Cc2ccccc2)c1` [Example 22] is 1460 nM.
Consider `C=CCOC(=O)N[C@@H](Cc1ccc(C(=N)N)cc1)C(=O)N[C@@H](CCC(=O)O)C(=O)NCc1cnc(C)nc1N` [Example 13, Alloc-pAph-Glu-(4-amino-2-methylpyrimidin-5-ylmethyl)amide], for which the Ki amounted to 1900 nM.
In turn, `C=CCOC(=O)N[C@@H](Cc1ccc(C(=N)N)cc1)C(=O)N[C@@H](CCC(=O)O)C(=O)NCCCN` [Example 38] showed a Ki of 3820 nM.
